Reference: PubChem BioAssay (NCI)
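How tested: cells in 96-well plates exposed to compound for 48 hours at five concentrations. TGI denotes the concentration required for complete inhibition of growth.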

What was measured:
Experiment in all cases: NCI anticancer screen, dose series, 48 h
786-0 renal = system: 786-0 renal
A498 renal = system: A498 renal
A549 NSCLC = system: A549 NSCLC
ACHN renal = system: ACHN renal
BT-549 breast = system: BT-549 breast
CAKI-1 renal = system: CAKI-1 renal
CCRF-CEM leukemia = system: CCRF-CEM leukemia
COLO 205 colon = system: COLO 205 colon
DU-145 prostate = system: DU-145 prostate
EKVX NSCLC = system: EKVX NSCLC
HCC-2998 colon = system: HCC-2998 colon
HCT-116 colon = system: HCT-116 colon
HCT-15 colon = system: HCT-15 colon
HL-60(TB) leukemia = system: HL-60(TB) leukemia
HOP-62 NSCLC = system: HOP-62 NSCLC
HOP-92 NSCLC = system: HOP-92 NSCLC
HS 578T breast = system: HS 578T breast
HT29 colon = system: HT29 colon
IGROV1 ovarian = system: IGROV1 ovarian
K-562 leukemia = system: K-562 leukemia
KM12 colon = system: KM12 colon
LOX IMVI melanoma = system: LOX IMVI melanoma
M14 melanoma = system: M14 melanoma
MALME-3M melanoma = system: MALME-3M melanoma
MCF7 breast = system: MCF7 breast
MDA-MB-231 breast = system: MDA-MB-231 breast
MDA-MB-435 = system: MDA-MB-435
MDA-N = system: MDA-N
MOLT-4 leukemia = system: MOLT-4 leukemia
NCI-H226 lung = system: NCI-H226 lung
NCI-H23 lung = system: NCI-H23 lung
NCI-H460 lung = system: NCI-H460 lung
NCI-H522 lung = system: NCI-H522 lung
NCI/ADR-RES ovarian = system: NCI/ADR-RES ovarian
OVCAR-3 ovarian = system: OVCAR-3 ovarian
OVCAR-4 ovarian = system: OVCAR-4 ovarian
OVCAR-5 ovarian = system: OVCAR-5 ovarian
OVCAR-8 ovarian = system: OVCAR-8 ovarian
PC-3 prostate = system: PC-3 prostate
RPMI-8226 leukemia = system: RPMI-8226 leukemia
RXF 393 renal = system: RXF 393 renal
SF-268 CNS = system: SF-268 CNS
SF-295 CNS = system: SF-295 CNS
SK-MEL-28 melanoma = system: SK-MEL-28 melanoma
SK-MEL-5 melanoma = system: SK-MEL-5 melanoma
SK-OV-3 ovarian = system: SK-OV-3 ovarian
SNB-19 CNS = system: SNB-19 CNS
SNB-75 CNS = system: SNB-75 CNS
SR leukemia = system: SR leukemia
SW-620 colon = system: SW-620 colon
TK-10 renal = system: TK-10 renal
U251 CNS = system: U251 CNS
UACC-257 melanoma = system: UACC-257 melanoma
UACC-62 melanoma = system: UACC-62 melanoma
UO-31 renal = system: UO-31 renal
SF-539 CNS = system: SF-539 CNS
SK-MEL-2 melanoma = system: SK-MEL-2 melanoma
SN12C renal = system: SN12C renal
T-47D breast = system: T-47D breast

Measured: TGI

NC(=Nc1ccc(Cl)cc1)c1ccccc1N
> 100 µM: 786-0 renal | A498 renal | A549 NSCLC | ACHN renal | BT-549 breast | CAKI-1 renal | CCRF-CEM leukemia | COLO 205 colon | DU-145 prostate | EKVX NSCLC | HCC-2998 colon | HCT-116 colon | HCT-15 colon | HL-60(TB) leukemia | HOP-62 NSCLC | HOP-92 NSCLC | HS 578T breast | HT29 colon | IGROV1 ovarian | K-562 leukemia | KM12 colon | LOX IMVI melanoma | M14 melanoma | MALME-3M melanoma | MCF7 breast | MDA-MB-231 breast | MDA-MB-435 | MDA-N | MOLT-4 leukemia | NCI-H226 lung | NCI-H23 lung | NCI-H460 lung | NCI-H522 lung | NCI/ADR-RES ovarian | OVCAR-3 ovarian | OVCAR-4 ovarian | OVCAR-5 ovarian | OVCAR-8 ovarian | PC-3 prostate | RPMI-8226 leukemia | RXF 393 renal | SF-268 CNS | SF-295 CNS | SK-MEL-28 melanoma | SK-MEL-5 melanoma | SK-OV-3 ovarian | SNB-19 CNS | SNB-75 CNS | SR leukemia | SW-620 colon | TK-10 renal | U251 CNS | UACC-257 melanoma | UACC-62 melanoma | UO-31 renal

C=C1C(=O)[C@@]23CC[C@@H]4[C@@]5(C)CCC[C@@]4(OC5=O)C2(C)CC[C@]1(OC)C3 (some centres not stated)
1.88 µM: HCT-116 colon
13.4 µM: SF-295 CNS
3.98 µM: ACHN renal
4.56 µM: HOP-62 NSCLC
12.7 µM: A549 NSCLC
6.92 µM: NCI-H460 lung
1.46 µM: SR leukemia
2.58 µM: SK-MEL-2 melanoma
3.39 µM: SK-MEL-5 melanoma
4.92 µM: SN12C renal
4 µM: OVCAR-8 ovarian
3.66 µM: SK-MEL-28 melanoma
0.436 µM: CCRF-CEM leukemia
4.6 µM: T-47D breast
5.07 µM: NCI-H23 lung
2.34 µM: OVCAR-3 ovarian
4.76 µM: IGROV1 ovarian
1.19 µM: LOX IMVI melanoma
3.69 µM: OVCAR-5 ovarian
7.2 µM: SF-268 CNS
1.17 µM: 786-0 renal
2.36 µM: NCI-H522 lung
0.864 µM: RPMI-8226 leukemia
5.64 µM: COLO 205 colon
21.8 µM: EKVX NSCLC
3.63 µM: SNB-19 CNS
3.23 µM: SW-620 colon
3.18 µM: TK-10 renal
2.02 µM: MDA-N
3.07 µM: SNB-75 CNS
6.85 µM: KM12 colon
3.21 µM: SF-539 CNS
3.81 µM: UACC-257 melanoma
1.98 µM: MOLT-4 leukemia
1.22 µM: MCF7 breast
3.41 µM: CAKI-1 renal
4.25 µM: M14 melanoma
1.24 µM: K-562 leukemia
18 µM: DU-145 prostate
2.44 µM: PC-3 prostate
3.22 µM: MDA-MB-435
3.19 µM: UO-31 renal
1.37 µM: HCC-2998 colon
6.69 µM: HS 578T breast
6.59 µM: NCI/ADR-RES ovarian

CNC(=O)CNC(=O)CCC(=O)OC
> 100 µM: 786-0 renal | A498 renal | A549 NSCLC | ACHN renal | CAKI-1 renal | COLO 205 colon | DU-145 prostate | HCT-116 colon | HOP-62 NSCLC | HT29 colon | K-562 leukemia | KM12 colon | M14 melanoma | MCF7 breast | MDA-MB-231 breast | MDA-MB-435 | MDA-N | MOLT-4 leukemia | NCI-H23 lung | NCI-H460 lung | NCI-H522 lung | NCI/ADR-RES ovarian | OVCAR-3 ovarian | OVCAR-4 ovarian | OVCAR-5 ovarian | OVCAR-8 ovarian | PC-3 prostate | RXF 393 renal | SF-268 CNS | SF-295 CNS | SF-539 CNS | SK-MEL-2 melanoma | SK-MEL-28 melanoma | SK-MEL-5 melanoma | SK-OV-3 ovarian | SN12C renal | SNB-19 CNS | SW-620 colon | T-47D breast | TK-10 renal | U251 CNS | UACC-62 melanoma | UO-31 renal

O=C1Cc2c([nH]c3ccc(Cl)cc23)-c2ccccc2N1
> 100 µM: 786-0 renal | A498 renal | A549 NSCLC | ACHN renal | COLO 205 colon | HCT-116 colon | HOP-92 NSCLC | HS 578T breast | IGROV1 ovarian | LOX IMVI melanoma | M14 melanoma | MALME-3M melanoma | MCF7 breast | MDA-MB-231 breast | MDA-MB-435 | MDA-N | NCI-H226 lung | NCI-H23 lung | NCI-H460 lung | NCI-H522 lung | NCI/ADR-RES ovarian | OVCAR-4 ovarian | OVCAR-8 ovarian | RPMI-8226 leukemia | SF-268 CNS | SF-295 CNS | SK-MEL-28 melanoma | SK-MEL-5 melanoma | SK-OV-3 ovarian | SN12C renal | SNB-19 CNS | SNB-75 CNS | T-47D breast | TK-10 renal | U251 CNS | UACC-62 melanoma | UO-31 renal

CC(C)(NO)/C(=N\O)c1ccco1
> 100 µM: 786-0 renal | A549 NSCLC | ACHN renal | CAKI-1 renal | COLO 205 colon | DU-145 prostate | EKVX NSCLC | HCC-2998 colon | HCT-116 colon | HCT-15 colon | HOP-62 NSCLC | HOP-92 NSCLC | HS 578T breast | HT29 colon | IGROV1 ovarian | KM12 colon | LOX IMVI melanoma | M14 melanoma | MALME-3M melanoma | MCF7 breast | MDA-MB-231 breast | MDA-MB-435 | MDA-N | NCI-H226 lung | NCI-H23 lung | NCI-H460 lung | NCI/ADR-RES ovarian | OVCAR-3 ovarian | OVCAR-4 ovarian | OVCAR-5 ovarian | OVCAR-8 ovarian | PC-3 prostate | RPMI-8226 leukemia | RXF 393 renal | SF-268 CNS | SF-295 CNS | SF-539 CNS | SK-MEL-2 melanoma | SK-MEL-28 melanoma | SK-MEL-5 melanoma | SK-OV-3 ovarian | SN12C renal | SNB-19 CNS | SW-620 colon | T-47D breast | TK-10 renal | U251 CNS | UACC-257 melanoma | UACC-62 melanoma | UO-31 renal
40.8 µM: MOLT-4 leukemia

CSC(N)=Nc1cccc2ccccc12
> 10 µM: 786-0 renal | A498 renal | A549 NSCLC | ACHN renal | CAKI-1 renal | CCRF-CEM leukemia | COLO 205 colon | DU-145 prostate | EKVX NSCLC | HCC-2998 colon | HCT-116 colon | HCT-15 colon | HL-60(TB) leukemia | HOP-62 NSCLC | HOP-92 NSCLC | HT29 colon | IGROV1 ovarian | K-562 leukemia | KM12 colon | LOX IMVI melanoma | M14 melanoma | MALME-3M melanoma | MCF7 breast | MDA-MB-231 breast | MDA-MB-435 | MDA-N | MOLT-4 leukemia | NCI-H226 lung | NCI-H23 lung | NCI-H460 lung | NCI-H522 lung | NCI/ADR-RES ovarian | OVCAR-3 ovarian | OVCAR-4 ovarian | OVCAR-8 ovarian | PC-3 prostate | RPMI-8226 leukemia | RXF 393 renal | SF-268 CNS | SF-295 CNS | SF-539 CNS | SK-MEL-2 melanoma | SK-MEL-28 melanoma | SK-MEL-5 melanoma | SK-OV-3 ovarian | SN12C renal | SNB-19 CNS | SNB-75 CNS | SR leukemia | SW-620 colon | T-47D breast | TK-10 renal | U251 CNS | UACC-257 melanoma | UACC-62 melanoma | UO-31 renal
